Results reported in article PMC10545747, “Development of cyclopeptide inhibitors of cGAS targeting protein-DNA interaction and phase separation” (Nature Communications, 2023).
“And” between values parts separate entries of the source, which are not always exact repeats. Equal values may be shown once. Square brackets hold non-standard residues; d marks the D form. Peptide text beside a SMILES is read from it.

Experiments:
[1] = tested on: HSV-1-infected THP1 cells; assay: qPCR of IFNB1/CXCL10/IL6 mRNA in THP1 cells stimulated by HSV-1 infection; format: cell-based, human
[2] = tested on: macrophage RAW264.7 cells; assay: qPCR of Ifnb1/Cxcl10/Il6 mRNA in RAW264.7 cells (ISD or HSV-1); format: cell-based, mouse; parameters: key to Ifnb1 mRNA (Fig. S2c) / Cxcl10 mRNA (Fig. S2c) / Ifnb1 mRNA (Fig. S2d) / Cxcl10 mRNA (Fig. S2d) / Ifnb1 mRNA (Fig. S7g) / Cxcl10 mRNA (Fig. S7g) / Il6 mRNA (Fig. S7g): mRNA level normalized to GAPDH (relative expression)
Method: The indicated cells were stimulated with either ISD (Sangon Biotech), HSV-1 (Provided by Dr. Zhengfan Jiang), HSV60mer (Sangon Biotech), SATE-cddA[70], 2’3’-cGAMP (Invivogen, Cat# tlrl-nacga23-1), ADU-S100 (MedChemExpress, Cat# HY-12885A) or Poly(I:C) (Invivogen, Cat# tlrl-pic) after XQ2 or XQ2B treatment. Total RNA was isolated from indicated cells that incubated with the drugs for indicated time or mice tissues by using NucleoZOL reagent (MACHEREY-NAGEL) according to the manufacturer’s instructions. The quantifications of mRNA levels were carried out by real-time PCR using a PerfectStart® Uni RT&qPCR Kit (TransGen Biotech) on the QuantStudio 5 qPCR machine (Applied Biosystems). Samples were carried out in triplicate and the target CT values were normalized to GAPDH CT values. Primers of qPCR used in this study can be found in Supplementary Table S2. […]
(c) L929, p = 0.0005 (Ifnb1),
BMDMs, p = 0.0001 (Ifnb1), p < 0.0001 (Cxcl10).
representative of three independent experiments in (a-g). (Data are presented as mean ± SD, n = 3 independent
Source data are provided as a Source Data file.

[3] = tested on: THP1 cells stimulated with poly (I: C) (TLR3 and RIG-I/MDA-5 pathways); assay: qPCR of IFNB1 mRNA in THP1 cells stimulated by poly (I: C); format: cell-based, human
Excerpt: We next evaluated the inhibitory effect of XQ2 against cGAS in murine fibroblast L929 cells, macrophage RAW264.7 cells and primary bone marrow-derived macrophages (BMDMs) from C57BL/6 mice.
The indicated cells were stimulated with either ISD (Sangon Biotech), HSV-1 (Provided by Dr. Zhengfan Jiang), HSV60mer (Sangon Biotech), SATE-cddA[70], 2’3’-cGAMP (Invivogen, Cat# tlrl-nacga23-1), ADU-S100 (MedChemExpress, Cat# HY-12885A) or Poly(I:C) (Invivogen, Cat# tlrl-pic) after XQ2 or XQ2B treatment. Total RNA was isolated from indicated cells that incubated with the drugs for indicated time or mice tissues by using NucleoZOL reagent (MACHEREY-NAGEL) according to the manufacturer’s instructions. The quantifications of mRNA levels were carried out by real-time PCR using a PerfectStart® Uni RT&qPCR Kit (TransGen Biotech) on the QuantStudio 5 qPCR machine (Applied Biosystems). Samples were carried out in triplicate and the target CT values were normalized to GAPDH CT values. Primers of qPCR used in this study can be found in Supplementary Table S2.

## CC(C)C[C@@H]1NC(=O)[C@H](CCCNC(=N)N)NC(=O)[C@H](C(C)C)NC(=O)[C@@H]2CCCN2C(=O)[C@@H](Cc2ccccc2)NC(=O)[C@H](CC(C)C)NC(=O)[C@H](CCCNC(=N)N)NC(=O)[C@H](C(C)C)NC(=O)[C@H](C)NC(=O)[C@@H](Cc2ccccc2)NC1=O [XQ2, Cyclo (LfAVRLfPVR)] (cyclo(L[dF]AVRL[dF]PVR))
[1]; HSV-1, XQ2 2.5 μM
  IFNB1 mRNA (Fig. S2b): 73.1655 and 85.1476 and 97.1694
  IL6 mRNA (Fig. S2b): 59.5539 and 58.6936 and 59.7795
[1]; HSV-1, XQ2 5 μM
  CXCL10 mRNA (Fig. S2b): 4443.66 and 5989.75 and 4916.38
  IFNB1 mRNA (Fig. S2b): 58.3528 and 60.5599 and 78.4822
  IL6 mRNA (Fig. S2b): 37.2474 and 41.0154 and 36.4161
[1]; HSV-1, XQ2 10 μM
  CXCL10 mRNA (Fig. S2b): 610.463 and 931.698 and 780.881
  IFNB1 mRNA (Fig. S2b): 20.0242 and 25.5972 and 33.1577
[1]; Mock, XQ2 0.31 μM
  CXCL10 mRNA (Fig. S2b): 0.6255 and 0.7855 and 0.8542
  IFNB1 mRNA (Fig. S2b): 0.7527 and 0.6452 and 0.8722
  IL6 mRNA (Fig. S2b): 0.9875 and 1.125 and 1.458
[1]; Mock, XQ2 0.63 μM
  CXCL10 mRNA (Fig. S2b): 0.4588 and 0.432 and 0.4044
  IFNB1 mRNA (Fig. S2b): 0.713 and 0.5919 and 0.8053
  IL6 mRNA (Fig. S2b): 1.48 and 1.078 and 1.222
[1]; Mock, XQ2 1.25 μM
  CXCL10 mRNA (Fig. S2b): 1.308 and 1.359 and 1.615
  IFNB1 mRNA (Fig. S2b): 0.9026 and 1.107 and 1.382
[1]; Mock, XQ2 2.5 μM
  CXCL10 mRNA (Fig. S2b): 3.137 and 2.991 and 2.833
  IFNB1 mRNA (Fig. S2b): 1.426 and 1.751 and 1.799
  IL6 mRNA (Fig. S2b): 2.387 and 2.459 and 3.439
[1]; Mock, XQ2 5 μM
  CXCL10 mRNA (Fig. S2b): 1.923 and 2.134 and 2.246
  IFNB1 mRNA (Fig. S2b): 1.17 and 1.093 and 1.0788
[1]; Mock, XQ2 10 μM
  CXCL10 mRNA (Fig. S2b): 4.593 and 4.941 and 4.3739
  IFNB1 mRNA (Fig. S2b): 1.523 and 2.285 and 2.284
  IL6 mRNA (Fig. S2b): 4.656 and 4.111 and 3.925
[1]; THP1
  HSV-1-induced IFNB1, CXCL10, IL6 expression: inhibited the expression level of IFNΒ1 and CXCL10, as well as IL6
[1]; THP1, HSV-1, 10 μM
  IFNB1 mRNA, qPCR, Fig. 2b: 17.701 and 20.2819 and 20.0106
[2]; RAW264.7, 10 μM
  Ifnb1 and Cxcl10 expression induced by ISD and HSV-1: significantly inhibited the expression of Ifnb1 and its downstream gene Cxcl10
[2]; RAW264.7, HSV-1+XQ2
  Cxcl10 mRNA (Fig. S2d): 226.869 and 260.086 and 204.298
  Ifnb1 mRNA (Fig. S2d): 1317.92 and 1543.45 and 1644.53
[2]; RAW264.7, ISD+XQ2
  Cxcl10 mRNA (Fig. S2c): 1626.72 and 1806.59 and 1855.72
  Ifnb1 mRNA (Fig. S2c): 12350.6 and 12954.9 and 11525.9
[2]; RAW264.7, XQ2 alone
  Cxcl10 mRNA (Fig. S2c): 3.511 and 3.569 and 3.235
  Cxcl10 mRNA (Fig. S2d): 3.511 and 3.569 and 3.235
  Ifnb1 mRNA (Fig. S2c): 1.57 and 1.726 and 1.836
  Ifnb1 mRNA (Fig. S2d): 1.57 and 1.726 and 1.836
[3]; THP1, 10 μM
  poly (I: C)-induced IFNB1 expression: did not affect the expression of IFNΒ1 induced by poly (I: C)
[3]; THP1, Poly(I:C), 10 μM
  IFNB1 mRNA, qPCR, Fig. 2b: 400.477 and 440.107 and 373.524
